Eight compounds from BindingDB's records for doi:10.7270/Q28G8J4C (Broad Institute, 2009) can be followed below.

This experiment deals with T1, POsterior Segregation (Caenorhabditis elegans, UniProt G5EF15).
T1 sequence (G5EF15 whole entry): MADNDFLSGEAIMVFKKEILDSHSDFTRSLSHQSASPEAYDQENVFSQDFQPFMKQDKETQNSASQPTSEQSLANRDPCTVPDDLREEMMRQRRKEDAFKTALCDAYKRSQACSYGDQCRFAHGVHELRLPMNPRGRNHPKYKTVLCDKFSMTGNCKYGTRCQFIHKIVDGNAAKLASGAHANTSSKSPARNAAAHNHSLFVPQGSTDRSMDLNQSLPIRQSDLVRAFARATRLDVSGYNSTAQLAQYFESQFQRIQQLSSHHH
Put plainly: disruptors of C. elegans POS-1 RNA interaction – biochemical, fluorescence polarization, dose response (AID 1964).

Each structure is given as a SMILES string.

With `O=C1C=CC(/C=C/c2nc(O)c([N+](=O)[O-])c(=O)[nH]2)C=C1O` (stereo not drawn) [SMR000524347], the concentration for a half-maximal effect (EC50) stood at 250 µM. `c1ccc(C2=NNC(c3ccccn3)N=N2)nc1` (stereo not drawn) [SMR000549436]: the concentration giving a half-maximal response (EC50) is 25.3 µM.

`O=C1NC(=O)N(c2ccc(F)cc2)C(=O)C1=Cc1c[nH]c2ccccc12` [SMR000556295] yielded an EC50 of 52.2 µM.

For `Cn1cc(C=C2C(=O)NC(=O)N(c3ccccc3)C2=O)c2ccccc21` [SMR000559087], the EC50 worked out at 5.28 µM. Compared with the last compound, the EC50 is about 9.9-fold lower. As for `O=C1N=C(N2C=CC(c3ccncc3)C=C2)C(=CN=NC(=O)c2ccccc2O)S1` [SMR000646350], the figure is 11.9 µM; as for `CN(C)[C@@H]1C(=O)C(C(N)=O)C(=O)[C@@]2(O)C(=O)C3C(=O)c4c(O)cccc4[C@@](C)(O)C3C(O)C12` (stereo partly drawn) [SMR000875333], 54.1 µM; as for `CCOC(=O)c1c(NC=C2C(=O)NC(=S)NC2=O)sc(C)c1C` [ethyl 2-[[4,6-bis(oxidanylidene)-2-sulfanylidene-1,3-diazinan-5-yl]methylideneamino]-4,5-dimethyl-thiophene-3-carboxylate], above 300 µM. As for `COC(=O)c1[nH]c2cc(OC)c(OC)cc2c1CN=Nc1ccccc1` [methyl (3Z)-5,6-dimethoxy-3-[(2-phenylhydrazinyl)methylidene]indole-2-carboxylate], the figure is 20 µM.
